# Measured values from patent publication EP4755384A1, “PHARMACEUTICAL COMPOSITION CONTAINING ANDROGEN RECEPTOR INHIBITOR/ANTAGONIST, METHOD AND USE” (Suzhou Kintor Pharmaceuticals, Inc., priority 2023, dated 2025).
# Assays:
# mice [1] = experiment: In-vivo efficacy experiment 2: hair scoring in depilated mice given DHT; parameters: key: 0 = no skin darkening, 5 = complete hair growth
# Method: (§1) 120 mice were deeply anesthetized. First, the hair on the back of the mice was shaved off with an animal hair clipper. Then, depilatory cream (Veet, https://item.jd.com/6291245.html) was evenly applied to the skin surface of the mice. After leaving it for 7-10 minutes, the remaining hair was gently scraped off against the hair growth direction with a depilatory spatula. Finally, the residual depilatory cream on the skin surface was thoroughly washed off with a wet wipe to avoid skin burns in the mice.
# (§2) DHT and test substances (compound of formula I and minoxidil) were administered starting on the day following depilation, which was recorded as Day 1 (the day of depilation was recorded as Day 0). 86 mice in good condition were randomly selected and assigned to each group.
# (§3) The main observation indicators of this experiment are shown in FIG. 12 (literature on hair scoring: Biomolecules & Therapeutics, 17(3), 241-248 (2009)), which is described as follows: (Score 0: No darkening of skin colour observed in any areas; Score 1: Darkening of skin area from greyish to black; Score 2: Visible short hairs; Score 3: Sparse hairs; Score 4: Dense hairs; Score 5: Complete hair growth). After depilation, the mice were photographed and scored three times a week until the end of the experiment. Table 4 Experimental grouping
# (§4) According to the grouping in Table 4, and the corresponding administration dose, test substance concentration and administration volume, […] above experimental design and methods. For groups G6, G7 and G8, which received a combined administration of the compound of formula I and minoxidil, one drug was administered first followed by the other, with the administration interval between the two drugs not exceeding 1 minute.
# (§5) Starting from the first day of administration, body weight was weighed and recorded twice a week, and hair regrowth (anagen) scoring and photography were performed […], until the end of the experiment. Scoring was conducted according to the criteria described in the experimental design.
# mice [2] = experiment: In-vivo efficacy experiment 1: hair scoring in depilated mice given DHT; parameters: key: 0 = no skin darkening, 5 = complete hair growth
# Method: as §1, with “100” for “120”
# as §3, with “experiment.” for “experiment. Table 4 Experimental grouping”
# as §1, with “100” for “120”, “cream” for “cream (Veet, https://item.jd.com/6291245.html)”
# as §2, with “64” for “86”, “group. Table 1 Experimental grouping” for “group.”
# as §4, with “1,” for “4,”, “groups” for “groups G6,”
# as §5
# [3] = Day 11, DHT model group: DHT 30 mg/kg subcutaneous injection QD + vehicle topical
# [4] = Day 21, DHT model group: DHT 30 mg/kg subcutaneous injection QD + vehicle topical
# [5] = Day 11, compound of formula I 0.5% (5 mg/mL) 150 µL topical QD, DHT 30 mg/kg subcutaneous QD
# [6] = Day 21, compound of formula I 0.5% (5 mg/mL) 150 µL topical QD, DHT 30 mg/kg subcutaneous QD
# [7] = Day 11, minoxidil 5% (50 mg/mL) 150 µL topical QD, DHT 30 mg/kg subcutaneous QD
# [8] = Day 21, minoxidil 5% (50 mg/mL) 150 µL topical QD, DHT 30 mg/kg subcutaneous QD
smiles,measurement,setting,value
"C[C@]12CCC(=O)C[C@@H]1CC[C@@H]1[C@@H]2CC[C@]2(C)[C@@H](O)CC[C@@H]12 [DHT, Dihydrotestosterone]",Hair scoring in mice,"mice [1]; Day 8, DHT model group: DHT 30 mg/kg subcutaneous injection QD + vehicle topical",0.00
same,Hair scoring in mice,mice [1]; [3],0.00
same,Hair scoring in mice,"mice [1]; Day 15, DHT model group: DHT 30 mg/kg subcutaneous injection QD + vehicle topical",0.40
same,Hair scoring in mice,"mice [1]; Day 17, DHT model group: DHT 30 mg/kg subcutaneous injection QD + vehicle topical",0.50
same,Hair scoring in mice,"mice [1]; Day 19, DHT model group: DHT 30 mg/kg subcutaneous injection QD + vehicle topical",0.90
same,Hair scoring in mice,mice [1]; [4],1.10
same,"Hair scoring in mice, Score","mice [2]; Day 7, DHT model group: DHT 30 mg/kg subcutaneous injection QD + vehicle topical",0.00
same,"Hair scoring in mice, Score","mice [2]; Day 9, DHT model group: DHT 30 mg/kg subcutaneous injection QD + vehicle topical",0.00
same,"Hair scoring in mice, Score",mice [2]; [3],0.13
same,"Hair scoring in mice, Score","mice [2]; Day 14, DHT model group: DHT 30 mg/kg subcutaneous injection QD + vehicle topical",0.38
same,"Hair scoring in mice, Score","mice [2]; Day 16, DHT model group: DHT 30 mg/kg subcutaneous injection QD + vehicle topical",0.63
same,"Hair scoring in mice, Score","mice [2]; Day 18, DHT model group: DHT 30 mg/kg subcutaneous injection QD + vehicle topical",1.25
same,"Hair scoring in mice, Score",mice [2]; [4],1.75
same,"Hair scoring in mice, Score","mice [2]; Day 23, DHT model group: DHT 30 mg/kg subcutaneous injection QD + vehicle topical",2.13
"COc1c(C#N)ccc(N2C(=O)C(C)(C)N(c3ccc(C)nc3)C2=S)c1F [compound of formula I, 4-(4,4-dimethyl-3-(6-methylpyridin-3-yl)-5-oxo-2-thioxoimidazolidin-1-yl)-3-fluoro-2-methoxybenzonitrile]",Hair scoring in mice,"mice [1]; Day 8, compound of formula I 0.25% (2.5 mg/mL) 150 µL topical QD, DHT 30 mg/kg subcutaneous QD",0.00
same,Hair scoring in mice,"mice [1]; Day 8, compound of formula I 0.5% (5 mg/mL) 150 µL topical QD, DHT 30 mg/kg subcutaneous QD",0.00
same,Hair scoring in mice,"mice [1]; Day 11, compound of formula I 0.25% (2.5 mg/mL) 150 µL topical QD, DHT 30 mg/kg subcutaneous QD",0.00
same,Hair scoring in mice,mice [1]; [5],0.00
same,Hair scoring in mice,"mice [1]; Day 15, compound of formula I 0.25% (2.5 mg/mL) 150 µL topical QD, DHT 30 mg/kg subcutaneous QD",0.60
same,Hair scoring in mice,"mice [1]; Day 15, compound of formula I 0.5% (5 mg/mL) 150 µL topical QD, DHT 30 mg/kg subcutaneous QD",0.90
same,Hair scoring in mice,"mice [1]; Day 17, compound of formula I 0.25% (2.5 mg/mL) 150 µL topical QD, DHT 30 mg/kg subcutaneous QD",1.00
same,Hair scoring in mice,"mice [1]; Day 17, compound of formula I 0.5% (5 mg/mL) 150 µL topical QD, DHT 30 mg/kg subcutaneous QD",1.40
same,Hair scoring in mice,"mice [1]; Day 19, compound of formula I 0.25% (2.5 mg/mL) 150 µL topical QD, DHT 30 mg/kg subcutaneous QD",1.40
same,Hair scoring in mice,"mice [1]; Day 19, compound of formula I 0.5% (5 mg/mL) 150 µL topical QD, DHT 30 mg/kg subcutaneous QD",1.70
same,Hair scoring in mice,"mice [1]; Day 21, compound of formula I 0.25% (2.5 mg/mL) 150 µL topical QD, DHT 30 mg/kg subcutaneous QD",1.80
same,Hair scoring in mice,mice [1]; [6],2.20
same,"Hair scoring in mice, Score","mice [2]; Day 7, compound of formula I 0.5% (5 mg/mL) 150 µL topical QD, DHT 30 mg/kg subcutaneous QD",0.00
same,"Hair scoring in mice, Score","mice [2]; Day 7, compound of formula I 1.0% (10 mg/mL) 150 µL topical QD, DHT 30 mg/kg subcutaneous QD",0.00
same,"Hair scoring in mice, Score","mice [2]; Day 9, compound of formula I 0.5% (5 mg/mL) 150 µL topical QD, DHT 30 mg/kg subcutaneous QD",0.13
same,"Hair scoring in mice, Score","mice [2]; Day 9, compound of formula I 1.0% (10 mg/mL) 150 µL topical QD, DHT 30 mg/kg subcutaneous QD",0.13
same,"Hair scoring in mice, Score",mice [2]; [5],0.38
same,"Hair scoring in mice, Score","mice [2]; Day 11, compound of formula I 1.0% (10 mg/mL) 150 µL topical QD, DHT 30 mg/kg subcutaneous QD",0.13
same,"Hair scoring in mice, Score","mice [2]; Day 14, compound of formula I 0.5% (5 mg/mL) 150 µL topical QD, DHT 30 mg/kg subcutaneous QD",0.88
same,"Hair scoring in mice, Score","mice [2]; Day 14, compound of formula I 1.0% (10 mg/mL) 150 µL topical QD, DHT 30 mg/kg subcutaneous QD",0.38
same,"Hair scoring in mice, Score","mice [2]; Day 16, compound of formula I 0.5% (5 mg/mL) 150 µL topical QD, DHT 30 mg/kg subcutaneous QD",1.13
same,"Hair scoring in mice, Score","mice [2]; Day 16, compound of formula I 1.0% (10 mg/mL) 150 µL topical QD, DHT 30 mg/kg subcutaneous QD",1.00
same,"Hair scoring in mice, Score","mice [2]; Day 18, compound of formula I 0.5% (5 mg/mL) 150 µL topical QD, DHT 30 mg/kg subcutaneous QD",1.75
same,"Hair scoring in mice, Score","mice [2]; Day 18, compound of formula I 1.0% (10 mg/mL) 150 µL topical QD, DHT 30 mg/kg subcutaneous QD",1.38
same,"Hair scoring in mice, Score",mice [2]; [6],2.25
same,"Hair scoring in mice, Score","mice [2]; Day 21, compound of formula I 1.0% (10 mg/mL) 150 µL topical QD, DHT 30 mg/kg subcutaneous QD",1.88
same,"Hair scoring in mice, Score","mice [2]; Day 23, compound of formula I 0.5% (5 mg/mL) 150 µL topical QD, DHT 30 mg/kg subcutaneous QD",2.50
same,"Hair scoring in mice, Score","mice [2]; Day 23, compound of formula I 1.0% (10 mg/mL) 150 µL topical QD, DHT 30 mg/kg subcutaneous QD",2.38
"Nc1cc(N2CCCCC2)nc(N)[n+]1[O-] [minoxidil, Minoxidil]",Hair scoring in mice,"mice [1]; Day 8, minoxidil 5% (50 mg/mL) 150 µL topical QD, DHT 30 mg/kg subcutaneous QD",0.00
same,Hair scoring in mice,mice [1]; [7],0.25
same,Hair scoring in mice,"mice [1]; Day 15, minoxidil 5% (50 mg/mL) 150 µL topical QD, DHT 30 mg/kg subcutaneous QD",1.25
same,Hair scoring in mice,"mice [1]; Day 17, minoxidil 5% (50 mg/mL) 150 µL topical QD, DHT 30 mg/kg subcutaneous QD",1.88
same,Hair scoring in mice,"mice [1]; Day 19, minoxidil 5% (50 mg/mL) 150 µL topical QD, DHT 30 mg/kg subcutaneous QD",2.63
same,Hair scoring in mice,mice [1]; [8],2.75
same,"Hair scoring in mice, Score","mice [2]; Day 7, minoxidil 2% (20 mg/mL) 150 µL topical QD, DHT 30 mg/kg subcutaneous QD",0.00
same,"Hair scoring in mice, Score","mice [2]; Day 7, minoxidil 5% (50 mg/mL) 150 µL topical QD, DHT 30 mg/kg subcutaneous QD",0.13
same,"Hair scoring in mice, Score","mice [2]; Day 9, minoxidil 2% (20 mg/mL) 150 µL topical QD, DHT 30 mg/kg subcutaneous QD",0.29
same,"Hair scoring in mice, Score","mice [2]; Day 9, minoxidil 5% (50 mg/mL) 150 µL topical QD, DHT 30 mg/kg subcutaneous QD",0.25
same,"Hair scoring in mice, Score","mice [2]; Day 11, minoxidil 2% (20 mg/mL) 150 µL topical QD, DHT 30 mg/kg subcutaneous QD",0.57
same,"Hair scoring in mice, Score",mice [2]; [7],0.38
same,"Hair scoring in mice, Score","mice [2]; Day 14, minoxidil 2% (20 mg/mL) 150 µL topical QD, DHT 30 mg/kg subcutaneous QD",0.86
same,"Hair scoring in mice, Score","mice [2]; Day 14, minoxidil 5% (50 mg/mL) 150 µL topical QD, DHT 30 mg/kg subcutaneous QD",1.00
same,"Hair scoring in mice, Score","mice [2]; Day 16, minoxidil 2% (20 mg/mL) 150 µL topical QD, DHT 30 mg/kg subcutaneous QD",1.14
same,"Hair scoring in mice, Score","mice [2]; Day 16, minoxidil 5% (50 mg/mL) 150 µL topical QD, DHT 30 mg/kg subcutaneous QD",1.75
same,"Hair scoring in mice, Score","mice [2]; Day 18, minoxidil 2% (20 mg/mL) 150 µL topical QD, DHT 30 mg/kg subcutaneous QD",1.86
same,"Hair scoring in mice, Score","mice [2]; Day 18, minoxidil 5% (50 mg/mL) 150 µL topical QD, DHT 30 mg/kg subcutaneous QD",2.63
same,"Hair scoring in mice, Score","mice [2]; Day 21, minoxidil 2% (20 mg/mL) 150 µL topical QD, DHT 30 mg/kg subcutaneous QD",2.29
same,"Hair scoring in mice, Score",mice [2]; [8],3.13
same,"Hair scoring in mice, Score","mice [2]; Day 23, minoxidil 2% (20 mg/mL) 150 µL topical QD, DHT 30 mg/kg subcutaneous QD",2.71
same,"Hair scoring in mice, Score","mice [2]; Day 23, minoxidil 5% (50 mg/mL) 150 µL topical QD, DHT 30 mg/kg subcutaneous QD",3.50
